Laboratory results as given in patent US20230233569A1 (Revolution Medicines, Inc., priority 2020, published 2023).
Where two headings read alike, the source gives them in different places.

Assays:
Capan-1 (K-Ras G12V) = assay: CellTiter-Glo cell viability assay, 5-day treatment; type: cell-based; details: Homo sapiens, CAPAN-1, 120 h, 5-day treatment; read-out: Capan-1 Cell Viability assay data (K-Ras G12V, IC50)
Method in brief: (§1)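 Luminescence read-out after 5 days of compound exposure, with plates first brought to room temperature for roughly 30 minutes. Values are percent of averaged DMSO wells, fitted by four-parameter logistic regression.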

NCI-H358 (K-Ras G12C) = assay: as above; type: cell-based; details: Homo sapiens, NCI-H358, 120 h, 5-day treatment; read-out: H358 Cell Viability assay data (K-Ras G12C, IC50)
Method in brief: as §1

KRAS Q61H = KRAS Q61H (Homo sapiens, UniProt P01116+P62937, Q61H); assay: Disruption of BRAF RBD interaction with Ras (FRET / MOA assay, with Cyclophilin A); type: biochemical; details: KRAS Q61H; read-out: KRAS Q61H FRET data IC50
Sequence of KRAS Q61H (P01116 1-169 isoform P01116-2 Q61H limits assumed): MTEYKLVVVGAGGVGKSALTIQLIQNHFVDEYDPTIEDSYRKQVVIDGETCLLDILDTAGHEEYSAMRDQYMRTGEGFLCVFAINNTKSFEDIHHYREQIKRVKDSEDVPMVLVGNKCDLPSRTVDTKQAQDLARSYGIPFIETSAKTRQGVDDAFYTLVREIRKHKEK
Sequence of KRAS Q61H (P62937 whole entry): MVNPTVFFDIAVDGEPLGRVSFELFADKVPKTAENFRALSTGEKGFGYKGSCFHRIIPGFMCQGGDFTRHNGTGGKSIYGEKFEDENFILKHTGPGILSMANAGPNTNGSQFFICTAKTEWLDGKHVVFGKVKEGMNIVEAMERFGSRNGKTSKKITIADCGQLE
Method in brief: (§2)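 IC50 reflects compound-driven Ras:Cyclophilin A ternary complex displacing BRAF RBD, read as lowered TR-FRET ratio relative to DMSO after Eu anti-His (10 nM) and APC anti-GST (50 nM) detection for 1.5 h. Prior incubation 3 h, 25° C, with 12.5 nM GMPPNP-loaded Ras, 50 nM BRAF RBD, 25 μM Cyclophilin A; top compound 30 μM.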

NRAS WT = NRAS WT (Homo sapiens, UniProt P01111+P62937); assay: as above; type: biochemical; details: NRAS WT; read-out: NRAS WT FRET data IC50
Sequence of NRAS WT (P01111 whole entry): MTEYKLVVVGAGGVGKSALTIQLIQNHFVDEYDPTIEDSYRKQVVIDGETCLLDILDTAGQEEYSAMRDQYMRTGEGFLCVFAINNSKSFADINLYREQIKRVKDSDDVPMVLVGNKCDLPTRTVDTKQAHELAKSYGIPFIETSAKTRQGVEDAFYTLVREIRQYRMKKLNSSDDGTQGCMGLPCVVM
Sequence of NRAS WT (P62937 whole entry): as the sequence (P62937 whole entry) above
Method in brief: as §2

NRAS Q61R = NRAS Q61R (Homo sapiens, UniProt P01111+P62937, Q61R); assay: as above; type: biochemical; details: NRAS Q61R; read-out: NRAS Q61R FRET data IC50
Sequence of NRAS Q61R (P01111 whole entry Q61R): as the sequence (P01111 whole entry) above, with Q61R counted along it
Sequence of NRAS Q61R (P62937 whole entry): as the sequence (P62937 whole entry) above
Method in brief: as §2

NRAS Q61K = NRAS Q61K (Homo sapiens, UniProt P01111+P62937, Q61K); assay: as above; type: biochemical; details: NRAS Q61K; read-out: NRAS Q61K FRET data IC50
Sequence of NRAS Q61K (P01111 whole entry Q61K): as the sequence (P01111 whole entry) above, with Q61K counted along it
Sequence of NRAS Q61K (P62937 whole entry): as the sequence (P62937 whole entry) above
Method in brief: as §2

KRAS G12S = KRAS G12S (Homo sapiens, UniProt P01116+P62937, G12S); assay: as above; type: biochemical
Sequence of KRAS G12S (P01116 1-169 isoform P01116-2 G12S limits assumed): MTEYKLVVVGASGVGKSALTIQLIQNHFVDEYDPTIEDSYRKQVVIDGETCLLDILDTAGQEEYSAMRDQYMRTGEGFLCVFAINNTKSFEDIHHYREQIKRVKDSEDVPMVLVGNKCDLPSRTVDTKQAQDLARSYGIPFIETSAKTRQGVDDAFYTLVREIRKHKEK
Sequence of KRAS G12S (P62937 whole entry): as the sequence (P62937 whole entry) above
Method in brief: (§3)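 Measured via TR-FRET after 3 h at 25 °C with compound (30 μM top, threefold serial steps, ten concentrations) plus K-Ras, Cyclophilin A and BRAF RBD, followed by 1.5 h with anti-His europium (10 nM) and anti-GST allophycocyanin (50 nM). Signal loss versus DMSO gave IC50.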

KRAS G13C = KRAS G13C (Homo sapiens, UniProt P01116+P62937, G13C); assay: as above; type: biochemical
Sequence of KRAS G13C (P01116 1-169 isoform P01116-2 G13C): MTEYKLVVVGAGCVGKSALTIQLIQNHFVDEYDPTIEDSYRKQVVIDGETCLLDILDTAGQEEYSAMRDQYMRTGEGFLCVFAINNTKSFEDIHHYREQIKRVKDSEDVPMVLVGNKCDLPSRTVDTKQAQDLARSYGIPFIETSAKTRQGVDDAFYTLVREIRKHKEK
Sequence of KRAS G13C (P62937 whole entry): as the sequence (P62937 whole entry) above
Method in brief: as §3

KRAS G12D = KRAS G12D (Homo sapiens, UniProt P01116+P62937, G12D); assay: as above; type: biochemical
Sequence of KRAS G12D (P01116 1-169 isoform P01116-2 G12D limits assumed): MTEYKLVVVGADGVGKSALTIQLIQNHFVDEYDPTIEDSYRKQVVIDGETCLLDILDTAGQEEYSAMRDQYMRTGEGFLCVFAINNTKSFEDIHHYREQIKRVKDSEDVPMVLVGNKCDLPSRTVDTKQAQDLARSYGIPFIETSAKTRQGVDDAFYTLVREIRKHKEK
Sequence of KRAS G12D (P62937 whole entry): as the sequence (P62937 whole entry) above
Method in brief: as §3

NRAS G12C = NRAS G12C (Homo sapiens, UniProt P01111+P62937, G12C); assay: as above; type: biochemical
Sequence of NRAS G12C (P01111 whole entry G12C): as the sequence (P01111 whole entry) above, with G12C counted along it
Sequence of NRAS G12C (P62937 whole entry): as the sequence (P62937 whole entry) above

KRAS G12V = KRAS G12V (Homo sapiens, UniProt P01116+P62937, G12V); assay: as above; type: biochemical
Sequence of KRAS G12V (P01116 1-169 isoform P01116-2 G12V limits assumed): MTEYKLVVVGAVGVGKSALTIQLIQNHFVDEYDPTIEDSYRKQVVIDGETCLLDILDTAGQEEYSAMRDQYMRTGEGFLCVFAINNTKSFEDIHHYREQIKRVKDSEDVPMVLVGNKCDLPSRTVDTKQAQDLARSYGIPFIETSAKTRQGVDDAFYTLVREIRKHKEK
Sequence of KRAS G12V (P62937 whole entry): as the sequence (P62937 whole entry) above
Method in brief: as §3

KRAS G13D = KRAS G13D (Homo sapiens, UniProt P01116+P62937, G13D); assay: as above; type: biochemical
Sequence of KRAS G13D (P01116 1-169 isoform P01116-2 G13D limits assumed): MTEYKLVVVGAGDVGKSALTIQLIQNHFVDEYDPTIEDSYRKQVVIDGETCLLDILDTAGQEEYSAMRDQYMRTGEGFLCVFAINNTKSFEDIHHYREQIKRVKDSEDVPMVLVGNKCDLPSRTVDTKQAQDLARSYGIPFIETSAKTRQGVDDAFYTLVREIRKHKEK
Sequence of KRAS G13D (P62937 whole entry): as the sequence (P62937 whole entry) above
Method in brief: as §3

KRAS G12C = KRAS G12C (Homo sapiens, UniProt P01116+P62937, G12C); assay: as above; type: biochemical
Sequence of KRAS G12C (P01116 1-169 isoform P01116-2 G12C): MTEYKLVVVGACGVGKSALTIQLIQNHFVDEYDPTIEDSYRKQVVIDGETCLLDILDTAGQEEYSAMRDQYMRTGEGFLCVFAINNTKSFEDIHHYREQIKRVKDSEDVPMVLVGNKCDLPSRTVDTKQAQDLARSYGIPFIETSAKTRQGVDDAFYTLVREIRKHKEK
Sequence of KRAS G12C (P62937 whole entry): as the sequence (P62937 whole entry) above
Method in brief: as §3

KRAS WT = KRAS WT (Homo sapiens, UniProt P01116+P62937); assay: as above; type: biochemical
Sequence of KRAS WT (P01116 1-169 isoform P01116-2 limits assumed): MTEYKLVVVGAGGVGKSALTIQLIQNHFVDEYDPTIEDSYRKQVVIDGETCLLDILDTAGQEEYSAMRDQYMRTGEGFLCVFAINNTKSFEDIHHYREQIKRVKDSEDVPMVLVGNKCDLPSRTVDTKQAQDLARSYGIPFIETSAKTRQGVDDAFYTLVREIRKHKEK
Sequence of KRAS WT (P62937 whole entry): as the sequence (P62937 whole entry) above
Method in brief: as §3

[1] = read-out: KRAS G12S FRET data, IC50
[2] = read-out: KRAS G13C FRET data, IC50
[3] = read-out: KRAS G12D FRET data, IC50
[4] = NRAS G12C, read-out: NRAS G12C FRET data IC50
[5] = KRAS G12V, read-out: KRAS G12V FRET data IC50
[6] = KRAS G13D, read-out: KRAS G13D FRET data IC50
[7] = read-out: KRAS G12C FRET data, IC50
[8] = KRAS WT, read-out: KRAS WT FRET data IC50

| Structure (SMILES) | IC50 (Capan-1 (K-Ras G12V)) [nM] | IC50 (NCI-H358 (K-Ras G12C)) [nM] | IC50 (KRAS Q61H) [nM] | IC50 (NRAS WT) [nM] | IC50 (NRAS Q61R) [nM] | IC50 (NRAS Q61K) [nM] | IC50 (KRAS G12S; [1]) [nM] | IC50 (KRAS G13C; [2]) [nM] | IC50 (KRAS G12D; [3]) [nM] | IC50 (NRAS G12C; [4]) [nM] | IC50 (KRAS G12V; [5]) [nM] | IC50 (KRAS G13D; [6]) [nM] | IC50 (KRAS G12C; [7]) [nM] | IC50 (KRAS WT; [8]) [nM] | also measured |
| --- | --- | --- | --- | --- | --- | --- | --- | --- | --- | --- | --- | --- | --- | --- | --- |
| CCn1c(-c2cccnc2[C@H](C)OC)c2c3cc(ccc31)-c1csc(n1)C[C@H](NC(=O)[C@H](C(C)C)N(C)C(=O)N1CC(C)(OC)C1)C(=O)N1CCC[C@H](N1)C(=O)OCC(C)(C)C2 [Example A299] | 100 to 1000 | 10 to 100 | 100 to 1000 | 100 to 1000 | 100 to 1000 | 100 to 1000 | 1000 to 10000 | 1000 to 10000 | 1000 to 10000 | 100 to 1000 | 1000 to 10000 | 1000 to 10000 | 100 to 1000 | 100 to 1000 |  |
| CCn1c(-c2cccnc2[C@H](C)OC)c2c3cc(ccc31)-c1csc(n1)C[C@H](NC(=O)[C@H](C(C)C)N(C)C(=O)N1CCCOCC1)C(=O)N1CCC[C@H](N1)C(=O)OCC(C)(C)C2 (atropisomer, axis not shown) [Example A335] | 10 to 100 | < 10 | 10 to 100 | 10 to 100 | 10 to 100 | 10 to 100 | 10 to 100 | 100 to 1000 | 100 to 1000 | 10 to 100 | 100 to 1000 | 100 to 1000 | 10 to 100 | 10 to 100 |  |
| CCn1c(-c2cccnc2[C@H](C)OC)c2c3cc(ccc31)-c1cc(O)cc(c1)C[C@H](NC(=O)[C@H](C(C)C)N(C)C(=O)[C@@H]1CCN[C@@H]1c1ccccc1)C(=O)N1CCC[C@H](N1)C(=O)OCC(C)(C)C2 (atropisomer, axis not shown) [Example A605] | 100 to 1000 | 10 to 100 | < 10 | 10 to 100 | 100 to 1000 | 100 to 1000 | 10 to 100 | 10 to 100 | 10 to 100 | 10 to 100 | 10 to 100 | 10 to 100 | 10 to 100 | 10 to 100 |  |
| CCn1c(-c2cccnc2[C@H](C)OC)c2c3cc(ccc31)-c1cc(O)cc(c1)C[C@H](NC(=O)[C@H](C(C)C)N(C)C(=O)[C@@H]1OCC[C@@H]1c1cccnc1)C(=O)N1CCC[C@H](N1)C(=O)OCC(C)(C)C2 (atropisomer, axis not shown) [Example A546] | 10 to 100 | < 10 | < 10 | 10 to 100 | 10 to 100 | 10 to 100 | 10 to 100 | 10 to 100 | 10 to 100 | 10 to 100 | 10 to 100 | 10 to 100 | < 10 | 10 to 100 |  |
| CCn1c(-c2cccnc2[C@H](C)OC)c2c3cc(ccc31)-c1csc(n1)C[C@H](NC(=O)N1CCC[C@@H]1COC)C(=O)N1CCC[C@H](N1)C(=O)OCC(C)(C)C2 (atropisomer, axis not shown) [Example A266] | 100 to 1000 | 100 to 1000 | 10 to 100 | 100 to 1000 | 100 to 1000 | 10 to 100 |  |  |  |  |  |  |  |  | IC50 (KRAS G12S; KRAS G12S FRET data, IC50): 100 to 1000 nM; IC50 (KRAS G13C; KRAS G13C FRET data, IC50): 10 to 100 nM; IC50 (KRAS G12D; KRAS G12D FRET data, IC50): 100 to 1000 nM; IC50 (NRAS G12C; NRAS G12C FRET data IC50, NRAS G12C): 10 to 100 nM; IC50 (KRAS G12V; KRAS G12V FRET data IC50, KRAS G12V): 10 to 100 nM; IC50 (KRAS G13D; KRAS G13D FRET data IC50, KRAS G13D): 100 to 1000 nM; IC50 (KRAS G12C; KRAS G12C FRET data, IC50): 10 to 100 nM; IC50 (KRAS WT; KRAS WT FRET data IC50, KRAS WT): 100 to 1000 nM |
| CCn1c(-c2cccnc2[C@H](C)OC)c2c3cc(ccc31)-c1csc(n1)C[C@H](NC(=O)[C@H](C(C)C)N(C)C(=O)N1CCN(C(=O)C3(N(C)C)CC3)CC1)C(=O)N1CCC[C@H](N1)C(=O)OCC(C)(C)C2 (atropisomer, axis not shown) [Example A443] | 10 to 100 | < 10 | 10 to 100 | 10 to 100 | 100 to 1000 | 10 to 100 | 100 to 1000 | 100 to 1000 | 100 to 1000 | 10 to 100 | 100 to 1000 | 100 to 1000 | 10 to 100 | 10 to 100 |  |
| CCn1c(-c2cccnc2[C@H](C)OC)c2c3cc(ccc31)-c1csc(n1)C[C@H](NC(=O)[C@H](C(C)C)N(C)C(=O)N(C)[C@@H]1CCCN(C)C1)C(=O)N1CCC[C@H](N1)C(=O)OCC(C)(C)C2 [Example A587] | 10 to 100 | 10 to 100 | 100 to 1000 | 100 to 1000 | 100 to 1000 | 100 to 1000 | 100 to 1000 | 100 to 1000 | 100 to 1000 | 100 to 1000 | 1000 to 10000 | 100 to 1000 | 100 to 1000 | 100 to 1000 |  |
| CCn1c(-c2cccnc2[C@H](C)OC)c2c3cc(ccc31)-c1csc(n1)C[C@H](NC(=O)[C@H](C(C)C)N(C)C(=O)N1CC3CCN(C)CC31)C(=O)N1CCC[C@H](N1)C(=O)OCC(C)(C)C2 (stereo partly shown) [Example A539] | 100 to 1000 | 100 to 1000 | 1000 to 10000 | 1000 to 10000 | 1000 to 10000 | 1000 to 10000 | 1000 to 10000 | 1000 to 10000 | 1000 to 10000 | 100 to 1000 | 1000 to 10000 | 1000 to 10000 | 1000 to 10000 | 1000 to 10000 |  |
| CCn1c(-c2cccnc2[C@H](C)OC)c2c3cc(ccc31)-c1csc(n1)C[C@H](NC(=O)[C@H](C(C)C)N(C)C(=O)N(C)C)C(=O)N1CCC[C@H](N1)C(=O)OCC(C)(C)C2 (racemic) [Example A136] | 10 to 100 | < 10 | 10 to 100 | 10 to 100 | 10 to 100 | 10 to 100 | 100 to 1000 | 100 to 1000 | 100 to 1000 | 10 to 100 | 100 to 1000 | 100 to 1000 | 10 to 100 | 100 to 1000 |  |
| CCn1c(-c2cccnc2[C@H](C)OC)c2c3cc(ccc31)-c1csc(n1)C[C@H](NC(=O)[C@H](C(C)C)N(C)C(=O)N1CC3(CC(O)C3)C1)C(=O)N1CCC[C@H](N1)C(=O)OCC(C)(C)C2 (atropisomer, axis not shown) [Example A510] | 10 to 100 | 10 to 100 | 10 to 100 | 100 to 1000 | 100 to 1000 | 10 to 100 | 100 to 1000 | 100 to 1000 | 1000 to 10000 | 10 to 100 | 100 to 1000 | 100 to 1000 | 10 to 100 | 100 to 1000 |  |
| CCn1c(-c2cccnc2[C@H](C)OC)c2c3cc(ccc31)-c1csc(n1)C[C@H](NC(=O)[C@H](C(C)C)N(C)C(=O)N1C3CC1CS(=O)(=O)C3)C(=O)N1CCC[C@H](N1)C(=O)OCC(C)(C)C2 [Example A496] | 100 to 1000 | 100 to 1000 | 100 to 1000 | 100 to 1000 | 1000 to 10000 | 100 to 1000 | 1000 to 10000 | 1000 to 10000 | 1000 to 10000 | 100 to 1000 | 100 to 1000 | 1000 to 10000 | 100 to 1000 | 100 to 1000 |  |
